Laboratory results taken from patent publication US12226404B2, “Methods for making compositions for pulmonary administration” (Board of Regents, the University of Texas System, priority 2007, dated 2025).
Values after ≈ are worked out from the molar mass of the structure shown. Values joined by “and” are separate entries in the source; they are usually repeats but may differ in a detail not shown here. Equal values may be shown once.

Legend:
[1] = Evaluation of rodent dosing apparatus with nebulized ITZ colloidal suspension, in vivo lung concentration; design: species or system outbred ICR mice; conditions: individual mice, 5 min nebulization
From the text: As used herein, the term “pre-clinical rodent dosing apparatus” refers to the apparatus reported by J. T. McConville, P. Sinswat, J. Tam, K. P. Johnston and R. O. Williams III, In vitro and in vivo validation of a high-concentration pre-clinical rodent dosing apparatus for inhalation, Proceedings of the American Association of Pharmaceutical Scientists, San Antonio, TX, October, 2006, relevant portions incorporated herein by reference. An animal dosing chamber was designed which consisted of hollow tubing (20×4.5 cm; nominal wall thickness of 0.4 cm) with four 1.75 cm adapter holes drilled at 7 cm intervals (2 holes along each side). The adapter holes were constructed to accept rodent restraint tubes from the Battelle® toxicology testing unit. A standard itraconazole (ITZ) colloidal suspension was nebulized into the apparatus for 5 minutes using a micro-pump nebulizer. Atomized droplets containing ITZ were driven into the chamber at a flow rate of 1 L/min. ITZ concentrations were measured in vitro at the 4 adapter ports, and in vivo from the lungs of 8 outbred-ICR mice in the appropriate mice restraining tubes at the adapter ports.
Example 11. […] ITZ concentrations were measured in vitro at the 4 adapter ports, and in vivo from the lungs of male outbred ICR mice in the appropriate mice restraining tubes at the adapter ports. […]

[2] = BET specific surface area analysis; type: physicochemical
Procedure: As used herein, the term “BET Analysis” refers to a method for measuring the surface area of the exposed surface of a solid sample on the molecular scale. The BET (Brunauer, Emmet, and Teller) theory is typically used to determine the area of solids. Commonly, samples are prepared by heating and simultaneously evacuating or flowing gas over the sample to remove the liberated impurities. The prepared samples are then cooled with liquid nitrogen and analyzed by measuring the volume of gas (typically N2 or Kr) adsorbed at specific pressures. Krypton gas is often used when the measured surface is expected to be less than 2 m^2/g (typically pharmaceutical samples and natural organic materials). The skilled artisan will recognize that several types of instruments may be used for measuring surface area, which depends upon the extent of the surface or the gas required to achieve the best results. […]
BET Specific Surface Area Analysis. Specific surface area was measured using a Nova 2000 v. […] The data recorded were then analyzed according to BET theory using NOVA Enhanced Data Reduction Software v. […]
Example 3. […] Specific surface area was measured using a Nova 2000 v 6.11 instrument (Quantachrome Instruments, Boynton Beach, FL). […] The data recorded were then analyzed according to BET theory using NOVA Enhanced Data Reduction Software v. […]

[3] = Dissolution testing below equilibrium solubility (sink) in modified simulated lung fluid with 0.02% DPPC; type: physicochemical; conditions: SLF 0.02% DPPC
Procedure: Dissolution Testing at Below Equilibrium Solubility. Dissolution testing at below equilibrium solubility was performed on the URF powder samples using a United States Pharmacopeia (USP) 27 Type 2 dissolution apparatus (VanKel VK6010 Dissolution Tester with a Vanderkamp VK650A heater/circulator, Varian, Inc. Palo Alto, CA). […] The dissolution media was maintained at 37.0±0.2° C. and stirred at a constant rate of 50 rpm. Samples (1 mL) were withdrawn at 10, 20, 30, 60 and 120 minute time points, filtered using a 0.45 μm GHP Acrodisc filter (VWR, Inc., West Chester, PA) and analyzed using a Shimadzu LC-10 liquid chromatograph (Shimadzu Corporation, Kyoto, Japan) equipped with an Alltech ODS-2, 5 μm C18 column (Alltech Associates, Inc., Deerfield, IL). The mobile phase consisted of a 70:30 (v/v) ACN: Water mixture, used at a flow rate of 1 mL/min. The maximum absorbance was measured at wavelength λmax=214 nm.
Example 5. […] Samples (1 mL) were withdrawn at 10, 20, 30, 60, and 120 minute time points, filtered using a 0.45 μm GHP Acrodisc filter (VWR, Inc. Westchester, PA), and analyzed using a Shimadzu LC-10 liquid chromatograph (Shimadzu Corporation, Kyoto, Japan) equipped with an Altech ODS-2, 5 μm C18 column (Altech Associates, Deerfield, IL). […] The maximum absorbance was measured at wavelength λ=214 nm.

[4] = Equilibrium solubility of TAC in modified simulated lung fluid with 0.02% DPPC; type: physicochemical; conditions: modified simulated lung fluid (SLF) with 0.02% DPPC, 37 °C, fassgf or other biorelevant, thermodynamic from solid, modified simulated lung fluid 0.02% DPPC
[5] = adult patients; cited from earlier work

Structure (SMILES) | ITZ Conc. in Lung Tissue [1] | Specific Surface Area ([2]; Table 2) | Surface Area (BET) ([2]; URF study, Table 4) | dissolution of TAC ([3]; at 1 hr, 37° C.) | dissolution of TAC ([3]; in 30 minutes, sink conditions) | solubility thermodynamic [4] | average oral bioavailability [5]
CCC(C)n1ncn(-c2ccc(N3CCN(c4ccc(OCC5COC(Cn6cncn6)(c6ccc(Cl)cc6Cl)O5)cc4)CC3)cc2)c1=O (stereo not shown) [ITZ, itraconazole] | 21.6 µg/g and 20.2 µg/g and 18.3 µg/g and 13.5 µg/g and 15.9 µg/g and 18.6 µg/g and 19.2 µg/g and 22.7 µg/g |  |  |  |  |  | 
C=CC[C@@H]1/C=C(\C)C[C@H](C)C[C@H](OC)[C@H]2O[C@@](O)(C(=O)C(=O)N3CCCC[C@H]3C(=O)O[C@H](/C(C)=C/[C@@H]3CC[C@@H](O)[C@H](OC)C3)[C@H](C)[C@@H](O)CC1=O)[C@H](C)C[C@@H]2OC [unprocessed TAC, Tacrolimus] |  | 0.533 m^2/g | 0.53 m^2/g | 30% | 30% | ~6.8 µg/mL (≈ 8.46 µM) | approximately 25%
